Marks after values point to notes of the source that are not given here. Each block holds one molecule with its values, some of them ahead of it.
How the values were obtained:
xanthine oxidase (XO) [1] = biological target: T1, xanthine oxidase (XO) (Bos taurus, UniProt P80457); assay: XO inhibitory activity assay (rate of uric acid formation, absorbance 290 nm); assay type: biochemical; details: peptide 5 mM; XO 0.05 U/mL, pre-incubation 37 °C 30 min, xanthine 0.42 mM, 20 mM sodium carbonate buffer pH 7.5, 290 nm; each sample tested three times
T1 construct: purchased Sigma Chemical Co. (St. Louis, MO, USA)
Protocol: The XO inhibitory activity was measured by quantifying the rate of uric acid produced in the enzyme-catalyzed reaction. All samples were dissolved in 20 mM sodium carbonate buffer at pH 7.5. […] During the reaction, the dynamic changes of the absorbance of the sample were continuously recorded at 290 nm. Each sample was tested three times. The XO inhibitory activity was calculated using the following formula:Inhibition (%) = (V1 − V2)/V1 × 100%(1) where V1 is the initial enzymatic reaction rate of the blank group, V2 is the initial enzymatic reaction rate of sample group.

xanthine oxidase (XO) [2] = biological target: T1, xanthine oxidase (XO); assay: Fluorescence quenching of XO (Stern-Volmer analysis); assay type: binding; details: for Kq (quenching rate constant) / Ksv (Stern-Volmer quenching constant): T 298 K; for Kq (quenching rate constant): Kq = Ksv/τ0, τ0 approximately 10^−8 s; for Ksv (Stern-Volmer quenching constant): XO 0.05 U/mL, peptide 0 to 20.0 × 10^−4 M, excitation 280 nm; for fluorescence quenching mechanism of XO: from Kq versus the collisional quenching threshold
Protocol: Fluorescence spectra were measured on an F-7000 Spectrofluorimeter (Hitachi Ltd., Ibaraki, Japan) with a 1.0 cm quartz cell and a thermostatic bath. Briefly, 2 mL XO (0.05 U/mL) was titrated by continuous addition of peptides solution (to final concentrations ranging from 0 to 20.0 × 10^−4 M). Then, the obtained mixture was properly mixed and equilibrated for 5 min. The slit widths for excitation and emission were set to 2.5 nm. The fluorescence emission spectra were then measured in the emission wavelength range from 300 to 500 nm, under 280 nm excitation wavelengths. The following Stern-Volmer equation was used to analyze the fluorescence quenching:F0/F = 1 + Ksv [C] = 1 + Kq τ0 [C](3) where F0 and F represent the steady-state fluorescence intensities in the absence and presence of quencher, respectively. Ksv is the Stern-Volmer quenching constant. [C] is the quencher concentration. Kq is the quenching rate constant of biomolecule. Kq = Ksv/τ0, τ0 is the average lifetime of biomolecule in the absence of quencher and its value is approximately 10^−8 s. Ksv used to be estimated by linear regression plot slope of F0/F versus.

xanthine oxidase (XO) [3] = biological target: T1, xanthine oxidase (XO); assay: Reversibility and type of XO inhibition (v vs enzyme plots; Lineweaver-Burk plots); assay type: biochemical; details: for type of XO inhibition: Lineweaver-Burk, peptide 0 and 5 mM, XO 0.05 U/mL, xanthine 0-0.4 mM, Km increased, Vmax decreased; for reversibility of XO inhibition: inhibitor 0, 5, 10 and 20 mM, XO 0 to 0.1 U/mL, xanthine 0.4 mM, 37 °C 30 min, pH 7.5
Protocol: The plots of ν (ΔOD290nm/min) versus the XO (U/mL) at different concentrations of the inhibitors (peptides) were constructed to determine the reversibility of inhibitory behavior on XO [29]. All samples were dissolved in 20 mM sodium carbonate buffer (pH 7.5). Inhibitor solution (0, 5, 10 and 20 mM) and XO solution (from 0 to 0.1 U/mL) were mixed and incubated at 37 °C for 30 min, and the concentration of the substrate xanthine was kept constant at 0.4 mM. The absorbance at 290 nm was then determined. ν is the initial enzymatic reaction rate of the reaction, which was investigated using the same method for the XO inhibitory activity assay.
The type of the inhibition of XO activity by the inhibitors (peptides) was investigated using Lineweaver and Burk kinetic analysis. It was performed via evaluating the initial rate of reaction in the presence and absence of inhibitors at different xanthine concentration. Briefly, the peptide (0 and 5 mM) and XO (0.05 U/mL) were mixed and incubated in the buffer (20 mM sodium carbonate buffer, pH 7.5) for 30 min at 37 °C. Subsequently, different xanthine concentrations (0, 0.05, 0.1, 0.2 and 0.4 mM) were successively added into the solutions. Then, the dynamic changes of the absorbance at 290 nm were recorded, and ν was calculated using the same method above. Km and Vmax values, as corresponding kinetic parameters, were obtained from the Lineweaver and Burk double reciprocal plots.

Xanthine oxidase [4] = biological target: Xanthine oxidase (UniProt P80457)
Xanthine oxidase [5] = biological target: Xanthine oxidase (UniProt P80457); assay: other fluorescence titration; quenching of the intrinsic fluorescence of XO (2 mL, 0.05 U/mL) titrated with peptide to 0-20.0 x 10^-4 M; equilibrated 5 min; excitation 280 nm, emission 300-500 nm; 298 K; Stern-Volmer analysis

Chain of Xanthine oxidase (P80457 2-1332): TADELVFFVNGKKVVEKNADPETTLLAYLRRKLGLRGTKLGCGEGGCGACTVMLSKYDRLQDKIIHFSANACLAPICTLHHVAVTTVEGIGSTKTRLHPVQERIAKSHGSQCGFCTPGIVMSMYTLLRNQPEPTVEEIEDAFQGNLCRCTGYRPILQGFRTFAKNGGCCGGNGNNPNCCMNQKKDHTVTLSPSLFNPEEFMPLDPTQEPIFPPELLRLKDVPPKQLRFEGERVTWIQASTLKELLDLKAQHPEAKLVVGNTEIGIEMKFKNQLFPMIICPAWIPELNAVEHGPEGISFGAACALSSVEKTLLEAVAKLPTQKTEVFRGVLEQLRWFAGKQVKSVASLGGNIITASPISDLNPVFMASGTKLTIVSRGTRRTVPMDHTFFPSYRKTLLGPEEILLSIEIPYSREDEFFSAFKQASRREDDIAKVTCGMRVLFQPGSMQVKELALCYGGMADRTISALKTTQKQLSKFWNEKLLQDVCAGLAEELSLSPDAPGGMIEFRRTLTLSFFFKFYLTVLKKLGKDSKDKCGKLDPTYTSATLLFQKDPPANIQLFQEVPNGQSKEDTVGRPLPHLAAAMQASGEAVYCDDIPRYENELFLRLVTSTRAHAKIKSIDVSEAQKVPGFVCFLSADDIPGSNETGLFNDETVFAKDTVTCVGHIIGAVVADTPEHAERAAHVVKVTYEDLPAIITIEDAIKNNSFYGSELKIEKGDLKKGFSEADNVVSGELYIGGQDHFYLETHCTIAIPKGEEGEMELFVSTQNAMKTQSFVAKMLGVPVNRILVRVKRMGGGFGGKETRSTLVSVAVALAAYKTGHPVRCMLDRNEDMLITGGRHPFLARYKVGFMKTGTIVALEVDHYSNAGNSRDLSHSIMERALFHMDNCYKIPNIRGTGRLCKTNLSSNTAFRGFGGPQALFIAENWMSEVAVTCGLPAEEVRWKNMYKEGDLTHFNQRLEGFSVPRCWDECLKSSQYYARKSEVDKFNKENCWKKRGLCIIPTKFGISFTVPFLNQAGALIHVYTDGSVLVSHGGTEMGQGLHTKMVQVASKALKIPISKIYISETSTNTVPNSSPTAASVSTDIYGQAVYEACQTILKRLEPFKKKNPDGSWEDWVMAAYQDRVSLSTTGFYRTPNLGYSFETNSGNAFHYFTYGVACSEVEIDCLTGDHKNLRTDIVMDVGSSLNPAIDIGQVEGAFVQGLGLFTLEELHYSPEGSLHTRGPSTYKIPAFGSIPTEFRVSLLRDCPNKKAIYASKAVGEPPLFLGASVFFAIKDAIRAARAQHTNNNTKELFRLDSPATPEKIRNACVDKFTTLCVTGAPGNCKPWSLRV
T1 sequence (P80457 whole entry): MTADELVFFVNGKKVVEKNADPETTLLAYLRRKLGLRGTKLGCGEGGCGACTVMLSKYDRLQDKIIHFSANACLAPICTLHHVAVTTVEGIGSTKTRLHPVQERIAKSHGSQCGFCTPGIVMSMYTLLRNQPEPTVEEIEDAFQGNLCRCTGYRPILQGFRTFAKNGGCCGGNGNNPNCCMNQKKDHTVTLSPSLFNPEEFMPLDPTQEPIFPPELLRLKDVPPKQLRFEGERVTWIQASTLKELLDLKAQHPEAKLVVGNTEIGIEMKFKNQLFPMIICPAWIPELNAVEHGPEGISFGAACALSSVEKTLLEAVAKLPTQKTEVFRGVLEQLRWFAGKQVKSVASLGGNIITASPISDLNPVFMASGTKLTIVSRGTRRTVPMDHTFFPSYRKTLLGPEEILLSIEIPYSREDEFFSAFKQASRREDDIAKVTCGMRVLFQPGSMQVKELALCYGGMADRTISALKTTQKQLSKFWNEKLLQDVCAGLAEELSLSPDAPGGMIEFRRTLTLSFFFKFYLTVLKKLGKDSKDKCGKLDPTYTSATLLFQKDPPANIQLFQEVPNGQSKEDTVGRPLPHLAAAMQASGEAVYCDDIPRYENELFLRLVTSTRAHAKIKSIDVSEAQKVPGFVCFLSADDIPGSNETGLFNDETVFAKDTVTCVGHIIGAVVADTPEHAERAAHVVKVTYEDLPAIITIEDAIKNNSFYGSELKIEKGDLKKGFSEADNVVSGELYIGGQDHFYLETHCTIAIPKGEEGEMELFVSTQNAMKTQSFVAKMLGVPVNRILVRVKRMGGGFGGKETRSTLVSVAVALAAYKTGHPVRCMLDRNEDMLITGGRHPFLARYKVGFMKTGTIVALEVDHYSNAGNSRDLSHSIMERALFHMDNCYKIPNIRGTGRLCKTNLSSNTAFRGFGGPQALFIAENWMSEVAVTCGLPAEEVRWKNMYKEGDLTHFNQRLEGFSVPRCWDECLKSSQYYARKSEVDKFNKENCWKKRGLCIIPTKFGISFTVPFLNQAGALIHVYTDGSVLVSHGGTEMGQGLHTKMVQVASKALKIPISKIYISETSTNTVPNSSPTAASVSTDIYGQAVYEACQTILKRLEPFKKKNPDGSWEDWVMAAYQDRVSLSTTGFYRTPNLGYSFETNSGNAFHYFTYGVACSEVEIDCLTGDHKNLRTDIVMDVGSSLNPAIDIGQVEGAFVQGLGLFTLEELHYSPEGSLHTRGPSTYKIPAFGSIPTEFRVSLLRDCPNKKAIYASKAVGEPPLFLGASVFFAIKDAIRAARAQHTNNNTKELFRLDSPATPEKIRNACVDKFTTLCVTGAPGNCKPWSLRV

Molecule: FPFP [tetrapeptide identified from round scad hydrolysate fraction F2, chemically synthesized]
XO Inhibitory Activity (%) (xanthine oxidase (XO) [1]): 20.09 ± 2.41 ^a %
Kq (quenching rate constant) (xanthine oxidase (XO) [2]): 5.608e+11 M⁻¹ s⁻¹
Ksv (Stern-Volmer quenching constant) (xanthine oxidase (XO) [2]): 5608 M⁻¹
fluorescence quenching mechanism of XO (xanthine oxidase (XO) [2]): static
type of XO inhibition (xanthine oxidase (XO) [3]): mixed inhibitor
reversibility of XO inhibition (xanthine oxidase (XO) [3]): reversible

Molecule: FPSV [tetrapeptide identified from round scad hydrolysate fraction F2, chemically synthesized]
XO Inhibitory Activity (%) (xanthine oxidase (XO) [1]): 22.61 ± 1.81 ^a %
Kq (quenching rate constant) (xanthine oxidase (XO) [2]): 5.42e+10 M⁻¹ s⁻¹
Ksv (Stern-Volmer quenching constant) (xanthine oxidase (XO) [2]): 542 M⁻¹
fluorescence quenching mechanism of XO (xanthine oxidase (XO) [2]): static
type of XO inhibition (xanthine oxidase (XO) [3]): mixed inhibitor
reversibility of XO inhibition (xanthine oxidase (XO) [3]): reversible

Molecule: KGFP [tetrapeptide identified from round scad hydrolysate fraction F2, chemically synthesized]
XO Inhibitory Activity (%) (xanthine oxidase (XO) [1]): 5.43 ± 0.20 ^c %

Molecule: FPSV
XO inhibitory activity (%) at 5 mM peptide (rate of uric acid formation, absorbance at 290 nm) (Xanthine oxidase [4]): 22.6%
Kq (quenching rate constant) (Xanthine oxidase [5]): 5.42e+10 M⁻¹ s⁻¹
Ksv (Stern-Volmer quenching constant) (Xanthine oxidase [5]): 542 M⁻¹

Molecule: KGFP
XO inhibitory activity (%) at 5 mM peptide (rate of uric acid formation, absorbance at 290 nm) (Xanthine oxidase [4]): 5.43%

The remaining lines, values ahead:

XO Inhibitory Activity (%) (xanthine oxidase (XO) [1]): 16.21 ± 0.78 ^b %
Molecule: WPDGR [pentapeptide identified from round scad hydrolysate fraction F2, chemically synthesized]

XO inhibitory activity (%) at 5 mM peptide (rate of uric acid formation, absorbance at 290 nm) (Xanthine oxidase [4]): 16.2%
Molecule: WPDGR

XO inhibitory activity (%) at 5 mM peptide (rate of uric acid formation, absorbance at 290 nm) (Xanthine oxidase [4]): 20.1%
Kq (quenching rate constant) (Xanthine oxidase [5]): 5.61e+11 M⁻¹ s⁻¹
Ksv (Stern-Volmer quenching constant) (Xanthine oxidase [5]): 5610 M⁻¹
Molecule: FPFP
